From patent US8207216B2, “Benzofuran-3-yl(indol-3-yl) maleimides as potent GSK3 inhibitors” (The Board of Trustees of the University of Illinois, priority 2006, dated 2012)

Legend:
[1] = biological target: T1, recombinant human His6-GSK-3β (Homo sapiens, UniProt P49841); experiment: GSK-3β kinase assay, [γ32P] transfer to primed glycogen synthase peptide; type: biochemical; conditions: for IC50: 10 μM ATP, 10 μM pGSM peptide, 30 minutes at 30° C., read-out: IC50 (nM), GSK-3β inhibition;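 on all read-outs here: phosphate incorporation quantified by liquid scintillation counting of the filters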
T1 construct: His6; purchased EMD Biosciences

MIAPaCa-2 = experiment: Antiproliferation MTS assay, pancreatic cancer cells; type: cell-based; conditions: Homo sapiens, MIA PaCa-2; 72 hrs, MTS
CDK-2/cyclinE = CDK-2/cyclinE (Homo sapiens, UniProt P24941); experiment: CDK-2/CyclinE inhibition (Reaction Biology); type: biochemical; conditions: for IC50: tested at Reaction Biology, Inc.; for IC50 Ratio CDK-2/cyclinE GSK-3β: selectivity ratio

T1 sequence (P49841 whole entry): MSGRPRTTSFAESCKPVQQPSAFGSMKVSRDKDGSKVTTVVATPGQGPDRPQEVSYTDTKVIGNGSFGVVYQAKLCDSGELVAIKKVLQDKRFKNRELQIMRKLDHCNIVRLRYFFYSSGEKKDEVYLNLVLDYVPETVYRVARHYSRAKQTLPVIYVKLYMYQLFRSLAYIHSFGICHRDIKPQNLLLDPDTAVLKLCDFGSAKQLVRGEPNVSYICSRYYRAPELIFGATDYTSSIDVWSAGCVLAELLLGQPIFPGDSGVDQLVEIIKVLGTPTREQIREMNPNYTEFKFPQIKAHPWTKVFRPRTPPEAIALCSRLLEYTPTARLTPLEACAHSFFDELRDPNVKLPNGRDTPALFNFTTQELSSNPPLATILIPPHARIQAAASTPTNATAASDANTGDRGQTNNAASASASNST

Row | Molecule | IC50 [1] | further results
1 | 3-(6-Chloro-5-methoxy-1-methyl-1H-indol-3-yl)-4-(6-methoxy-benzofuran-3-yl)-pyrrole-2,5-dione [Compound 14] | 870 ± 160 nM | Ki [1]: 580 nM
2 | Cn1cc(C2=C(c3coc4cc(CO)ccc34)C(=O)NC2=O)c2cc(F)ccc21 [Compound 7, 3-(5-Fluoro-1-methyl-1H-indol-3-yl)-4-(6-hydroxymethyl-benzofuran-3-yl)-pyrrole-2,5-dione] | 0.35 ± 0.06 nM | IC50 (CDK-2/cyclinE): 237 nM
3 | COc1cccc2c(C3=C(c4cn(C)c5cc(Br)c(F)cc45)C(=O)NC3=O)coc12 [Compound 11, 3-(6-Bromo-5-fluoro-1-methyl-1H-indol-3-yl)-4-(7-methoxy-benzofuran-3-yl)-pyrrole-2,5-dione] | 59.7 ± 6.57 nM | –
4 | C=CCOc1ccc2c(C3=C(c4cn(C)c5ccc(Br)cc45)C(=O)NC3=O)coc2c1 [Compound 24, 3-(6-Allyloxy-benzofuran-3-yl)-4-(5-bromo-1-methyl-1H-indol-3-yl)-pyrrole-2,5-dione] | 48.3 ± 7 nM | –
5 | COc1cccc2c(C3=C(c4cn(C)c5c(Br)cc(Br)cc45)C(=O)NC3=O)coc12 [Compound 26, 3-(5,7-Dibromo-1-methyl-1H-indol-3-yl)-4-(7-methoxy-benzofuran-3-yl)-pyrrole-2,5-dione] | 88.7 ± 5.6 nM | –
6 | Cn1cc(C2=C(c3coc4ccc(F)cc34)C(=O)NC2=O)c2cc(Cl)ccc21 [Compound 27, 3-(5-Chloro-1-methyl-1H-indol-3-yl)-4-(5-fluoro-benzofuran-3-yl)-pyrrole-2,5-dione] | 34.5 ± 3.8 nM | IC50 Ratio CDK-2/cyclinE GSK-3β (CDK-2/cyclinE): 2.6; IC50 (CDK-2/cyclinE): 1840 nM
7 | Cn1cc(C2=C(c3coc4ccc(F)cc34)C(=O)NC2=O)c2cc(I)ccc21 [Compound 29, 3-(5-Fluoro-benzofuran-3-yl)-4-(5-iodo-1-methyl-1H-indol-3-yl)-pyrrole-2,5-dione] | 180 ± 11 nM | –
8 | O=C1NC(=O)C(c2cn(CCCO)c3ccc(OCc4ccccc4)cc23)=C1c1coc2ccccc12 [Compound 32, 3-Benzofuran-3-yl-4-[5-benzyloxy-1-(3-hydroxy-propyl)-1H-indol-3-yl]-pyrrole-2,5-dione] | 220 ± 30 nM | –
9 | Cn1cc(C2=C(c3coc4cc(CO)ccc34)C(=O)NC2=O)c2cc(C#N)ccc21 [Compound 34, 3-[4-(6-Hydroxymethyl-benzofuran-3-yl)-2,5-dioxo-2,5-dihydro-1H-pyrrol-3-yl]-1-methyl-1H-indole-5-carbonitrile] | 13.2 ± 3.2 nM | –
10 | Cn1cc(C2=C(c3coc4ccccc34)C(=O)NC2=O)c2cc(C3CC3)ccc21 [Compound 37, 3-Benzofuran-3-yl-4-(5-cyclopropyl-1-methyl-1H-indol-3-yl)-pyrrole-2,5-dione] | 235 ± 15 nM | IC50 (CDK-2/cyclinE): 32000 nM
11 | O=C1NC(=O)C(c2coc3ccccc23)=C1c1c[nH]c2ccc(OCc3ccccc3)cc12 [Compound 44, 3-Benzofuran-3-yl-4-(5-benzyloxy-1H-indol-3-yl)-pyrrole-2,5-dione] | 1650 ± 200 nM | IC50 (MIAPaCa-2): 21000 nM
12 | Cn1cc(C2=C(c3coc4ccc(F)cc34)C(=O)NC2=O)c2ccc(OCc3ccccc3)cc21 [Compound 48, 3-(6-Benzyloxy-1-methyl-1H-indol-3-yl)-4-(5-fluoro-benzofuran-3-yl)-pyrrole-2,5-dione] | 160 ± 35 nM | IC50 (MIAPaCa-2): 80000 nM
13 | Cn1cc(C2=C(c3coc4ccccc34)C(=O)NC2=O)c2cccc(CO)c21 [Compound 50, 3-Benzofuran-3-yl-4-(7-hydroxymethyl-1-methyl-1H-indol-3-yl)-pyrrole-2,5-dione] | 5.4 ± 0.7 nM | –
14 | Cn1cc(C2=C(c3coc4cc(CO)ccc34)C(=O)NC2=O)c2cccc(CO)c21 [Compound 51, 3-(6-Hydroxymethyl-benzofuran-3-yl)-4-(7-hydroxymethyl-1-methyl-1H-indol-3-yl)-pyrrole-2,5-dione] | 5.1 ± 1.2 nM | –
15 | Cn1cc(C2=C(c3coc4ccccc34)C(=O)NC2=O)c2cccc(CO)c21 [Compound 82] | – | IC50 Ratio CDK-2/cyclinE GSK-3β (CDK-2/cyclinE): 27; IC50 (CDK-2/cyclinE): 149 nM
16 | Cn1cc(C2=C(c3coc4cc(CO)ccc34)C(=O)NC2=O)c2cccc(CO)c21 [Compound 83] | – | IC50 Ratio CDK-2/cyclinE GSK-3β (CDK-2/cyclinE): 5; IC50 (CDK-2/cyclinE): 27 nM
17 | CCOC(=O)CCc1cccc2c(C3=C(c4coc5ccccc45)C(=O)NC3=O)cn(C)c12 [Compound 93] | 10.2 ± 3.6 nM | –

Further molecules by falling IC50 [1], results first:

Row | IC50 [1] | Molecule | further results
18 | 7160 ± 1200 nM | COc1cccc2c(C3=C(c4cn(C)c5cc(-c6ccc(Cl)cc6)c(F)cc45)C(=O)NC3=O)coc12 [Compound 18, 3-[6-(4-Chlorophenyl)-5-fluoro-1-methyl-1H-indol-3-yl]-4-(7-methoxy-benzofuran-3-yl)-pyrrole-2,5-dione] | –
19 | 1300 ± 146 nM | Cn1cc(C2=C(c3coc4ccccc34)C(=O)NC2=O)c2cc(N3CCOCC3)ccc21 [Compound 39, 3-Benzofuran-3-yl-4-(1-methyl-5-morpholin-4-yl-1H-indol-3-yl)-pyrrole-2,5-dione] | –
20 | 900 ± 80 nM | Cn1cc(C2=C(c3coc4ccccc34)C(=O)NC2=O)c2ccc(OCc3ccccc3)cc21 [Compound 47, 3-Benzofuran-3-yl-4-(6-benzyloxy-1-methyl-1H-indol-3-yl)-pyrrole-2,5-dione] | –
21 | 690 ± 100 nM | Cn1cc(C2=C(c3coc4ccccc34)C(=O)NC2=O)c2cc(O)ccc21 [Compound 30, 3-Benzofuran-3-yl-4-(5-hydroxy-1-methyl-1H-indol-3-yl)-pyrrole-2,5-dione] | –
22 | 670 ± 40 nM | O=C1NC(=O)C(c2coc3ccc(F)cc23)=C1c1c[nH]c2ccccc12 [Compound 2, 3-(5-Fluoro-benzofuran-3-yl)-4-(1H-indol-3-yl)-pyrrole-2,5-dione] | –
23 | 550 ± 20 nM | Cn1cc(C2=C(c3coc4ccc(Br)cc34)C(=O)NC2=O)c2ccccc21 [Compound 3, 3-(5-Bromo-benzofuran-3-yl)-4-(1-methyl-1H-indol-3-yl)-pyrrole-2,5-dione] | –
24 | 500 ± 60 nM | Cn1cc(C2=C(c3coc4ccccc34)C(=O)NC2=O)c2cc(OCc3ccccc3)ccc21 [Compound 31, 3-Benzofuran-3-yl-4-(5-benzyloxy-1-methyl-1H-indol-3-yl)-pyrrole-2,5-dione] | –
25 | 360 ± 40 nM | O=C1NC(=O)C(c2coc3ccccc23)=C1c1c[nH]c2ccc(F)cc12 [Compound 5, 3-Benzofuran-3-yl-4-(5-fluoro-1H-indol-3-yl)-pyrrole-2,5-dione] | IC50 (MIAPaCa-2): 21000 nM
26 | 335 ± 37 nM | COc1ccc(COc2ccc3c(C4=C(c5cn(C)c6ccc(Br)cc56)C(=O)NC4=O)coc3c2)cc1 [Compound 25, 3-(5-Bromo-1-methyl-1H-indol-3-yl)-4-[6-(4-methoxy-benzyloxy)-benzofuran-3-yl]-pyrrole-2,5-dione] | –
27 | 223 ± 22 nM | COc1cc2c(C3=C(c4coc5ccccc45)C(=O)NC3=O)cn(C)c2cc1I [Compound 43, 3-Benzofuran-3-yl-4-(6-iodo-5-methoxy-1-methyl-1H-indol-3-yl)-pyrrole-2,5-dione] | –
28 | 220 ± 45 nM | Cn1cc(C2=C(c3coc4ccccc34)C(=O)NC2=O)c2cccc(OCc3ccccc3)c21 [Compound 54, 3-Benzofuran-3-yl-4-(7-benzyloxy-1-methyl-1H-indol-3-yl)-pyrrole-2,5-dione] | –
29 | 180 ± 15 nM | COc1cccc2c(C3=C(c4cn(C)c5ccccc45)C(=O)NC3=O)coc12 [Compound 4, 3-(7-Methoxy-benzofuran-3-yl)-4-(1-methyl-1H-indol-3-yl)-pyrrole-2,5-dione] | –
30 | 125 ± 35 nM | COc1ccc2c(c1)c(C1=C(c3coc4ccccc34)C(=O)NC1=O)cn2C [Compound 41, 3-Benzofuran-3-yl-4-(5-methoxy-1-methyl-1H-indol-3-yl)-pyrrole-2,5-dione] | –
31 | 55 ± 8 nM | Cn1cc(C2=C(c3coc4ccccc34)C(=O)NC2=O)c2cccc(O)c21 [Compound 53, 3-Benzofuran-3-yl-4-(7-hydroxy-1-methyl-1H-indol-3-yl)-pyrrole-2,5-dione] | –
32 | 26 ± 6 nM | Cn1cc(C2=C(c3coc4ccccc34)C(=O)NC2=O)c2cc(F)ccc21 [Compound 6, 3-Benzofuran-3-yl-4-(5-fluoro-1-methyl-1H-indol-3-yl)-pyrrole-2,5-dione] | –
33 | 3.5 ± 1.3 nM | Cn1cc(C2=C(c3coc4cc(O)ccc34)C(=O)NC2=O)c2cc(F)ccc21 [Compound 9, 3-(5-Fluoro-1-methyl-1H-indol-3-yl)-4-(6-hydroxy-benzofuran-3-yl)-pyrrole-2,5-dione] | –
34 | 1.2 ± 0.2 nM | Cn1cc(C2=C(c3coc4ccccc34)C(=O)NC2=O)c2cccc(CCC(=O)O)c21 [Compound 86] | –
35 | 0.73 ± 0.1 nM | COCc1cccc2c(C3=C(c4coc5cc(CO)ccc45)C(=O)NC3=O)cn(C)c12 [Compound 92] | –
36 | 0.35 ± 0.06 nM | CN1C(=O)C(c2coc3cc(CO)ccc23)=C(c2cn(C)c3ccc(F)cc23)C1=O [Compound 56, 3-(5-Fluoro-1-methyl-1H-indol-3-yl)-4-(6-hydroxymethyl-benzofuran-3-yl)-1-methyl-pyrrole-2,5-dione] | –
